According to US20240025910A1, “BRAIN-MIGRATING TUMOR THERAPEUTIC AGENT CONTAINING FUSED PYRIMIDINE COMPOUND AS ACTIVE INGREDIENT” (TAIHO PHARMACEUTICAL CO., LTD., priority 2020, published 2024):

Assays:
[1] = Evaluation of brain penetration property (Kp, Kp,uu) after single oral dose; assay type: in vivo; settings: BALB/cAJcl-nu/nu; for Kp at 1 h: mouse, ratio of compound concentrations in brain/plasma, mice, 1 hour after administration, Kp of 0.1 or more judged brain penetrable; for Kp uu at 1 h: ratio of unbound compound concentrations in brain/plasma, using mouse plasma and brain protein unbound ratios of Test Example 1, mice, 0.3 or more judged excellent
Description: Compounds shown in Tables 1 to 4 were added to mouse plasma at a final concentration of 1 μmol/L. The resultant compound-added mouse plasma was added to the donor side of an equilibrium dialysis device (HTDialysis) in which an equilibrium dialysis membrane was set. An equal amount of PBS was added to the receiver side of the device, and after incubation in a 10% CO2 incubator for 6 hours, the compounds on the donor side and the receiver side were detected with the LC-MS/MS. The unbound ratio of each compound to plasma protein was calculated from the ratio of the compound peak area of the receiver side to that of the donor side.
The unbound ratio of each compound to brain protein was calculated in the same manner as above except that: the compound was added to a mouse brain homogenate instead of the mouse plasma; and a dilution ratio was taken into consideration in the calculation of the unbound ratio. In this case, the mouse brain homogenate was obtained by adding a 3-fold amount of PBS to the mouse brain, and then homogenizing the mixture through use of an ultrasonic homogenizer.
The compounds shown in Tables 1 to 4 were dissolved or suspended in 0.5% HPMC, 0.1N hydrochloric acid, and orally administered in a single dose to BALB/cAJcl-nu/nu mice (CLEA Japan, Inc.) untreated, or subcutaneously implanted with TT cells, or subcutaneously implanted with the BaF3/KIF5B-RET_RFP cell line. […] Thus, blood and brain samples were obtained. The obtained blood sample was centrifuged to obtain a plasma sample. A 3-fold amount of water was added to the obtained brain sample, and then the mixture was homogenized through use of an ultrasonic homogenizer to obtain a brain homogenate.
Compound concentrations in the obtained plasma and in the brain homogenate were measured with the LC-MS/MS, and the compound concentration in the brain homogenate was multiplied by a factor of 4 to calculate a compound concentration in the brain. A Kp value was calculated from the ratio of the compound concentrations in the brain/plasma. Unbound compound concentrations in the plasma and in the brain were calculated from the plasma protein unbound ratio and brain protein unbound ratio of each compound determined in Test Example 1, and a Kp,uu value was calculated from the ratio of the unbound compound concentrations in the brain/plasma. A brain penetration property was evaluated on the basis of the calculated Kp value and Kp,uu value (Tables 1 to 4). Specifically, a compound showing a Kp value of 0.1 or more was judged to have a brain penetration property, and a compound showing a Kp,uu value of 0.3 or more was judged to have an excellent brain penetration property (Varadharajan, S., et al. (2015) J Pharm Sci 104, 1197-1206). In Table 4, “N/A” in the column “Kp,uu value” means that the value was unmeasured.

[2] = tested on: NIH/3T3_CCDC6-RET cells implanted in the brain; test: Evaluation of drug efficacy in brain tumor implantation model; assay type: in vivo, nude mice (BALB/cAJcl-nu/nu); settings: oral 50 mg/kg/day, twice a day for 16 consecutive days from Day 5; NIH/3T3_CCDC6-RET brain implant, nude mice
Description: Antitumor evaluation was performed in models with tumors implanted in the brain.
The growth inhibitory effect was confirmed by using NIH/3T3 cells (NIH/3T3_CCDC6-RET cells) in which luciferase and CCDC6-RET fusion protein were forced to be expressed for gene transfer. Six-week-old male nude mice (BALB/cAJcl-nu/nu, CLEA Japan, Inc.) were fixed on a brain stereotaxic instrument, and 2.5×10^4 cells per mice were implanted at a site 0.5 mm anteriorly from the bregma, 2 to 2.2 mm to the right and 3.5 mm deep. The day of implantation was defined as Day 0, luciferin (150 mg/kg) was administered intraperitoneally on Day 4, and intensity of luminescence (photons/sec) was measured using an IVIS Imaging System (Lumina II, PerkinElmer).
From the next day (Day 5), compounds were administered twice a day for 16 consecutive days. Each compound was suspended in 0.5% HPMC/0.1N hydrochloric acid and administered orally at 50 mg/kg/day. To confirm tumor growth, intensity of luminescence was measured at intervals of 3 or 4 days by the method described above.
However, since a humane endpoint due to tumor growth was applied to the drug non-administration group (control group), statistical evaluation was performed by Dunnett's test using the measurement value on Day 14.

Structure (SMILES) | Kp at 1 h [1] | Kp uu at 1 h [1] | inhibitory effect on growth of tumors implanted in the brain (intensity of luminescence) [2]
COCc1ccc(NC(=O)c2c(C#Cc3cnn(C)c3)n(C3(C)CC3)c3ncnc(N)c23)cc1 [Example 4, 4-amino-N-[4-(methoxymethyl)phenyl]-6-((1-methyl-1H-pyrazol-4-yl)ethynyl)-7-(1-methylcyclopropyl)-7H-pyrrolo[2,3-d]pyrimidine-5-carboxamide] | 1.44 | 1.2 | –
COCc1ccc(NC(=O)c2c(C#CC3CCN(C)CC3)n(C3(C)CC3)c3ncnc(N)c23)cc1 [Example 3, 4-amino-N-[4-(methoxymethyl)phenyl]-7-(1-methylcyclopropyl)-6-[(1-methylpiperidin-4-yl)ethynyl]-7H-pyrrolo[2,3-d]pyrimidine-5-carboxamide] | 0.772 | 0.22 | –
Cc1cc(NC(=O)c2c(C#Cc3cnn(C)c3)n(C3(C)CC3)c3ncnc(N)c23)[nH]n1 [compound 3, reference compound] | 0.076 | – | –
CC#Cc1c(C(=O)Nc2ccc(COC)cc2)c2c(N)ncnc2n1C1(C)CC1 [Example 5, 4-amino-N-[4-(methoxymethyl)phenyl]-7-(1-methylcyclopropyl)-6-(prop-1-yn-1-yl)-7H-pyrrolo[2,3-d]pyrimidine-5-carboxamide] | 1.56 | 0.681 | –
Cc1cc(NC(=O)c2cn(C3(C)CC3)c3ncnc(N)c23)n[nH]1 [compound 2, reference compound] | 0.022 | 0.005 | –
COCc1ccc(NC(=O)c2c(C#Cc3cncn3C)n(C3(C)CC3)c3ncnc(N)c23)cc1 [Example 10, 4-amino-N-(4-(methoxymethyl)phenyl)-6-((1-methyl-1H-imidazol-5-yl)ethynyl)-7-(1-methylcyclopropyl)-7H-pyrrolo[2,3-d]pyrimidine-5-carboxamide] | 0.143 | 0.056 | –
COCc1ccc(NC(=O)c2c(C#CCC(C)(C)O)n(C3(C)CC3)c3ncnc(N)c23)cc1 [Example 14, 4-amino-6-(4-hydroxy-4-methylpent-1-yn-1-yl)-N-[4-(methoxymethyl)phenyl]-7-(1-methylcyclopropyl)-7H-pyrrolo[2,3-d]pyrimidine-5-carboxamide] | 0.352 | 0.242 | –
COCc1ccc(NC(=O)c2c(C#CC3CCOCC3)n(C3(C)CC3)c3ncnc(N)c23)cc1 [Example 13, 4-amino-N-[4-(methoxymethyl)phenyl]-7-(1-methylcyclopropyl)-6-((tetrahydro-2H-pyran-4-yl)ethynyl)-7H-pyrrolo[2,3-d]pyrimidine-5-carboxamide] | 2.08 | 0.891 | –
COCc1ccc(NC(=O)c2c(C#CCC3CCOCC3)n(C3(C)CC3)c3ncnc(N)c23)cc1 [Example 15, 4-amino-N-[4-(methoxymethyl)phenyl]-7-(1-methylcyclopropyl)-6-[3-(tetrahydro-2H-pyran-4-yl)prop-1-yn-1-yl]-7H-pyrrolo[2,3-d]pyrimidine-5-carboxamide] | 0.74 | 0.37 | –
COCc1ccc(NC(=O)c2cn(C3(C)CC3)c3ncnc(N)c23)cc1 [Example 8, 4-amino-N-[4-(methoxymethyl)phenyl]-7-(1-methylcyclopropyl)-7H-pyrrolo[2,3-d]pyrimidine-5-carboxamide] | 0.175 | 0.1 | –
Cc1cc(NC(=O)c2cn(C(C)(C)C)c3ncnc(N)c23)n[nH]1 [compound 1, reference compound] | 0.056 | – | –
COCc1ccc(NC(=O)c2c(OC[C@H]3CCCO3)n(C3(C)CC3)c3ncnc(N)c23)cc1 [Example 7, (R)-4-amino-N-[4-(methoxymethyl)phenyl]-7-(1-methylcyclopropyl)-6-((tetrahydrofuran-2-yl)methoxy)-7H-pyrrolo[2,3-d]pyrimidine-5-carboxamide] | 1.63 | 0.608 | –
COCc1ccc(NC(=O)c2c(C#Cc3cccnc3)n(C3(C)CC3)c3ncnc(N)c23)cc1 [Example 16, 4-amino-N-[4-(methoxymethyl)phenyl]-7-(1-methylcyclopropyl)-6-(pyridin-3-ylethynyl)-7H-pyrrolo[2,3-d]pyrimidine-5-carboxamide] | 1.09 | 0.653 | –
COCc1ccc(NC(=O)c2c(C#CCN3CCCC3)n(C3(C)CC3)c3ncnc(N)c23)cc1 [Example 12, 4-amino-N-[4-(methoxymethyl)phenyl]-7-(1-methylcyclopropyl)-6-(3-(pyrrolidin-1-yl)prop-1-yn-1-yl)-7H-pyrrolo[2,3-d]pyrimidine-5-carboxamide] | 1.02 | 1.45 | –
COCc1ccc(NC(=O)c2c(C#Cc3ccc(N)nc3)n(C3(C)CC3)c3ncnc(N)c23)cc1 [Example 17, 4-amino-6-[(6-aminopyridin-3-yl)ethynyl]-N-[4-(methoxymethyl)phenyl]-7-(1-methylcyclopropyl)-7H-pyrrolo[2,3-d]pyrimidine-5-carboxamide] | 0.129 | 0.052 | –
COCc1ccc(NC(=O)c2c(C#CCN3CCSCC3)n(C3(C)CC3)c3ncnc(N)c23)cc1 [Example 18, 4-amino-N-[4-(methoxymethyl)phenyl]-7-(1-methylcyclopropyl)-6-(3-thiomorpholinoprop-1-yn-1-yl)-7H-pyrrolo[2,3-d]pyrimidine-5-carboxamide] | 0.685 | 0.443 | –
COCc1ccc(NC(=O)c2c(C#CCN3CCOCC3)n(C3(C)CC3)c3ncnc(N)c23)cc1 [Example 2, 4-amino-N-[4-(methoxymethyl)phenyl]-7-(1-methylcyclopropyl)-6-(3-morpholinoprop-1-yn-1-yl)-7H-pyrrolo[2,3-d]pyrimidine-5-carboxamide] | 1.71 | 1.8 | inhibitory effect on the growth of the implanted tumors
COCc1ccc(NC(=O)c2c(C#CCN3CCCCC3)n(C3(C)CC3)c3ncnc(N)c23)cc1 [Example 11, 4-amino-N-[4-(methoxymethyl)phenyl]-7-(1-methylcyclopropyl)-6-(3-(piperidin-1-yl)prop-1-yn-1-yl)-7H-pyrrolo[2,3-d]pyrimidine-5-carboxamide] | 1.36 | – | –
CCOc1c(C(=O)Nc2ccc(COC)cc2)c2c(N)ncnc2n1C1(C)CC1 [Example 9, 4-amino-6-ethoxy-N-[4-(methoxymethyl)phenyl]-7-(1-methylcyclopropyl)-7H-pyrrolo[2,3-d]pyrimidine-5-carboxamide] | 2.12 | 0.914 | –
COCc1ccc(NC(=O)c2c(C#Cc3cn(C)nc3C)n(C3(C)CC3)c3ncnc(N)c23)cc1 [Example 1, 4-amino-6-[2-(1,3-dimethyl-1H-pyrazol-4-yl)ethynyl]-N-[4-(methoxymethyl)phenyl]-7-(1-methylcyclopropyl)-7H-pyrrolo[2,3-d]pyrimidine-5-carboxamide] | 0.425 | 0.425 | –
COCc1ccc(NC(=O)c2c(C#CCN(C)C)n(C3(C)CC3)c3ncnc(N)c23)cc1 [Example 6, 4-amino-6-[3-(dimethylamino)prop-1-yn-1-yl]-N-[4-(methoxymethyl)phenyl]-7-(1-methylcyclopropyl)-7H-pyrrolo[2,3-d]pyrimidine-5-carboxamide] | 0.969 | 0.922 | –
